Laboratory results as given in PubChem BioAssay (NCI).
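Dose response: 5 concentrations. Exposure: 48 h. Format: 96-well plates. Endpoint: linear interpolation; highest concentration if not reached. GI50 = concentration required for 50% inhibition of growth. TGI marks complete inhibition of growth.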

Tests used:
Assay in all cases: NCI tumour cell line growth inhibition, 48 h
[1] = system: DMS 114 small cell lung
[2] = system: KM20L2 colon
[3] = system: M19-MEL melanoma
[4] = system: UACC-62 melanoma
[5] = system: SNB-78 CNS
[6] = system: DLD-1 colon
[7] = system: 786-0 renal
[8] = system: LXFL 529 NSCLC
[9] = system: DMS 273 small cell lung
[10] = system: T-47D breast
[11] = system: XF 498 CNS
[12] = system: HOP-18 NSCLC
[13] = system: P388/ADR leukemia
[14] = system: P388 leukemia
[15] = system: SN12K1 renal

SMILES	TGI [1]	TGI [3]	TGI [4]	TGI [6]	TGI [7]	TGI [9]	TGI [10]	also measured
CC(=O)Nc1ccc(Cl)c(Cl)c1	> 100 µM	> 100 µM	> 100 µM	> 100 µM	> 100 µM	> 100 µM		TGI [2]: > 100 µM; TGI [5]: > 100 µM; TGI [8]: > 100 µM
Cc1ccc(C(=O)Nc2ccc(CP(=O)(O)O)cc2)cc1NC(=O)c1cccc(NC(=O)Nc2cccc(C(=O)Nc3cc(C(=O)Nc4ccc(CP(=O)(O)O)cc4)ccc3C)c2)c1			> 100 µM		> 100 µM		> 100 µM	
Cc1cc(O)cc(O)c1N=Nc1ccc([N+](=O)[O-])cc1			32.2 µM				> 100 µM	
CSc1c(C(=O)Nc2ccc(C)cc2)c(N)[nH]c(=O)c1C#N			> 100 µM		> 100 µM		> 100 µM	
O=C1NC(=S)NC(=O)C1C(c1ccccc1[N+](=O)[O-])C1C(=O)NC(=S)NC1=O			> 100 µM		> 100 µM		> 100 µM	
CC(C)/C(Cl)=N\OC(=O)NNc1ccccc1			> 100 µM		> 100 µM		40.1 µM	
OCc1ccccc1C1CSCSC1	> 100 µM	> 100 µM	> 100 µM	> 100 µM		> 100 µM		TGI [11]: > 100 µM; TGI [5]: > 100 µM; TGI [8]: > 100 µM
CCOC(=O)C1CC(O)C(=O)N1C (stereo not given)			> 100 µM		> 100 µM		> 100 µM	
C[C@]12CC/C(=N\O)C=C1CC[C@@H]1[C@@H]2CC[C@]2(C)C(=N/O)/C(=C/c3cccnc3)C[C@@H]12			10.4 µM		> 100 µM			
Cc1oc2nc(N(C)C)n3nnnc3c2c1C			> 100 µM		> 100 µM		> 100 µM	
CC(=O)OCC1OC(n2c(=S)[nH]c(-c3ccccc3)c(C#N)c2=O)C(OC(C)=O)C(OC(C)=O)C1OC(C)=O (stereo not given)			> 100 µM		> 100 µM		> 100 µM	
COc1cc([C@@H]2c3cc4c(cc3C[C@H]3COC(=O)[C@@H]32)OCO4)cc(OC)c1OC	0.0167 µM	> 50 µM	> 50 µM	> 50 µM		> 4.13 µM		TGI [12]: > 50 µM; TGI [11]: 1.88 µM; TGI [13]: 0.502 µM; GI50 [4]: 0.0028 µM; TGI [5]: > 50 µM; TGI [14]: > 15.8 µM; TGI [15]: > 3.86 µM
CC(C)=CC1C(C(=O)O)C1(C)C (stereo not given)	> 750 µM	> 750 µM	> 750 µM	> 750 µM		> 750 µM		TGI [2]: > 750 µM; TGI [12]: > 750 µM; TGI [11]: > 75 µM; TGI [13]: > 750 µM; TGI [14]: > 750 µM; TGI [15]: > 750 µM
